Results: US8354441B2, “Oxazoline derivatives” (Hoffmann-La Roche Inc., priority 2009, dated 2013)

Tests used:
rat TAAR1 = target: T1, rat TAAR1 (Rattus norvegicus, UniProt Q923Y9); assay: TAAR1 radioligand binding with [3H]-rac-2-(1,2,3,4-tetrahydro-1-naphthyl)-2-imidazoline, membranes of stably transfected HEK293 cells; conditions: second value of the cell, read-out: Ki (μM) mouse/rat: rat
T1 construct: expressed in transfected cells; host or cells: HEK293 (ATCC # CRL-1573), stably transfected with pIRESneo2 expression plasmid
T1 sequence (Q923Y9 whole entry): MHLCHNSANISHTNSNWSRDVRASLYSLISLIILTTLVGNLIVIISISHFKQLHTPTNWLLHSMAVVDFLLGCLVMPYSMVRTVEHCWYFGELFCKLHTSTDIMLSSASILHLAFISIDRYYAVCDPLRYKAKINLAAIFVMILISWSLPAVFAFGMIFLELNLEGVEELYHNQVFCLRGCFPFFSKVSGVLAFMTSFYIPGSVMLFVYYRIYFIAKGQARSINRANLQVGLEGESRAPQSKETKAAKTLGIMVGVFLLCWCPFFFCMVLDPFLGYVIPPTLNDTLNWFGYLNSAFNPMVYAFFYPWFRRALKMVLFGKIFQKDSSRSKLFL
Method in brief: (§1)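 Competition binding: competitors spanning 10 pM–30 μM displace 60 nM [3H]-rac-2-(1,2,3,4-tetrahydro-1-naphthyl)-2-imidazoline from stably transfected HEK293 membranes (mouse or rat receptor), 30 min, 4 °C, pH 7.0 buffer with Mg2+/Ca2+. Bound label counted after GF/C filtration; 10 μM unlabelled ligand defines non-specific binding.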

mouse TAAR1 = target: T2, mouse TAAR1 (Mus musculus, UniProt Q923Y8); assay: as above; conditions: first value of the cell, read-out: Ki (μM) mouse/rat: mouse
T2 construct: expressed in transfected cells; host or cells: HEK293 (ATCC # CRL-1573), stably transfected with pIRESneo2 expression plasmid
T2 sequence (Q923Y8 whole entry): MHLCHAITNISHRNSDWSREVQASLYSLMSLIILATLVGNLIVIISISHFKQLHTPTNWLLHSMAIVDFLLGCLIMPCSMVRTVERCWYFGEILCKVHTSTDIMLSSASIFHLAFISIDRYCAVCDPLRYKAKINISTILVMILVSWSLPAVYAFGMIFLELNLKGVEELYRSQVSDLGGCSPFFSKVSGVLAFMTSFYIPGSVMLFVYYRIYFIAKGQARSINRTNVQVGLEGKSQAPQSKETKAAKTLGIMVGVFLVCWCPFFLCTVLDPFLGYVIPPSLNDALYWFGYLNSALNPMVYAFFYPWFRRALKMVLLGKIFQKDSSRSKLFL
Method in brief: as §1

Row | Ki (rat TAAR1) [µM] | Ki (mouse TAAR1) [µM] | SMILES
1 | 0.004 | 0.0041 | COc1cc(C(=O)Nc2ccc(CC[C@H]3COC(N)=N3)cc2)nc(OC)n1 [Example 190, (S)-N-(4-(2-(2-Amino-4,5-dihydrooxazol-4-yl)ethyl)phenyl)-2,6-dimethoxypyrimidine-4-carboxamide]
2 | 0.0004 | 0.0002 | NC1=N[C@@H](CCc2ccc(NC(=O)c3ccc(Br)cn3)cc2)CO1 [Example 92, 5-Bromo-pyridine-2-carboxylic acid {4-[2-((S)-2-amino-4,5-dihydro-oxazol-4-yl)-ethyl]-phenyl}-amide]
3 | 0.0063 | 0.0006 | Cc1cc(Cl)cc(C(=O)Nc2ccc(CC[C@H]3COC(N)=N3)cc2)n1 [Example 156, (S)-N-(4-(2-(2-Amino-4,5-dihydrooxazol-4-yl)ethyl)phenyl)-4-chloro-6-methylpicolinamide]
4 | 0.0003 | 0.0016 | NC1=N[C@@H](CCc2ccc(NC(=O)c3nccc4ccccc34)cc2)CO1 [Example 93, Isoquinoline-1-carboxylic acid {4-[2-((S)-2-amino-4,5-dihydro-oxazol-4-yl)-ethyl]-phenyl}-amide]
5 | 0.0006 | 0.0003 | NC1=N[C@@H](CCc2ccc(NC(=O)c3ccc(Cl)cc3Cl)cc2)CO1 [Example 137, (S)-N-(4-(2-(2-Amino-4,5-dihydrooxazol-4-yl)ethyl)phenyl)-2,4-dichlorobenzamide]
6 | 0.0022 | 0.0015 | CCc1ocnc1C(=O)Nc1ccc(CC[C@H]2COC(N)=N2)cc1 [Example 213, (S)-N-(4-(2-(2-Amino-4,5-dihydrooxazol-4-yl)ethyl)phenyl)-5-ethyloxazole-4-carboxamide]
7 | 0.0022 | 0.001 | CC(C(=O)Nc1ccc(CC[C@H]2COC(N)=N2)cc1)c1cccc(C(F)(F)F)c1 (stereo partly drawn) [Example 81, N-{4-[2-((S)-2-Amino-4,5-dihydro-oxazol-4-yl)-ethyl]-phenyl}-2-(3-trifluoromethyl-phenyl)-propionamide]
8 | 0.0029 | 0.0036 | CC(C)c1cc(C(=O)Nc2ccc(CC[C@H]3COC(N)=N3)cc2)ccn1 [Example 198, (S)-N-(4-(2-(2-Amino-4,5-dihydrooxazol-4-yl)ethyl)phenyl)-2-isopropylisonicotinamide]
9 | 0.0019 | 0.0043 | COc1ccc(CC(=O)Nc2ccc(CC[C@H]3COC(N)=N3)cc2)cc1 [Example 68, N-{4-[2-((S)-2-Amino-4,5-dihydro-oxazol-4-yl)-ethyl]-phenyl}-2-(4-methoxy-phenyl)-acetamide]
10 | 0.0002 | 0.0002 | NC1=N[C@@H](CCc2ccc(NC(=O)c3cccc(Cl)c3)cc2)CO1 [Example 18, N-{4-[2-((S)-2-Amino-4,5-dihydro-oxazol-4-yl)-ethyl]-phenyl}-3-chloro-benzamide]
11 | 0.0022 | 0.0063 | COc1cnc(C(=O)Nc2ccc(CC[C@H]3COC(N)=N3)cc2)cn1 [Example 127, (S)-N-(4-(2-(2-Amino-4,5-dihydrooxazol-4-yl)ethyl)phenyl)-5-methoxypyrazine-2-carboxamide]
12 | 0.001 | 0.0029 | NC1=N[C@@H](CCc2ccc(N3Cc4ccc(Cl)cc4C3=O)cc2)CO1 [Example 186, 2-{4-[2-((S)-2-Amino-4,5-dihydro-oxazol-4-yl)-ethyl]-phenyl}-6-chloro-2,3-dihydro-isoindol-1-one]
13 | 0.0005 | 0.0009 | COc1ccc(C(=O)Nc2ccc(CC[C@H]3COC(N)=N3)cc2)cc1 [Example 71, N-{4-[2-((S)-2-Amino-4,5-dihydro-oxazol-4-yl)-ethyl]-phenyl}-4-methoxy-benzamide]

Row | SMILES | Ki (rat TAAR1) [µM] | Ki (mouse TAAR1) [µM]
14 | COc1ccc(OC(=O)Nc2ccc(CC[C@H]3COC(N)=N3)cc2)cc1 [Example 147, {4-[2-((S)-2-Amino-4,5-dihydro-oxazol-4-yl)-ethyl]-phenyl}-carbamic acid 4-methoxy-phenyl ester] | 0.0003 | 0.0006
